Reference: ChEMBL document CHEMBL1144422, “Symmetrical bis-quinolinium compounds: new human choline kinase inhibitors with antiproliferative activity against the HT-29 cell line” (J Med Chem, 2005)

Assays:
HT-29 [1] = test: In vitro antiproliferative effect in […] HT 29 cells; format: functional, cell-based; settings: Homo sapiens
Choline kinase alpha = Choline kinase alpha (Homo sapiens, UniProt P35790); test: Ex vivo inhibitory concentration against human choline kinase
HT-29 [2] = test: Antiproliferative activity against HT 29 cells; format: functional, cell-based; settings: Homo sapiens

Chain of Choline kinase alpha (P35790 whole entry): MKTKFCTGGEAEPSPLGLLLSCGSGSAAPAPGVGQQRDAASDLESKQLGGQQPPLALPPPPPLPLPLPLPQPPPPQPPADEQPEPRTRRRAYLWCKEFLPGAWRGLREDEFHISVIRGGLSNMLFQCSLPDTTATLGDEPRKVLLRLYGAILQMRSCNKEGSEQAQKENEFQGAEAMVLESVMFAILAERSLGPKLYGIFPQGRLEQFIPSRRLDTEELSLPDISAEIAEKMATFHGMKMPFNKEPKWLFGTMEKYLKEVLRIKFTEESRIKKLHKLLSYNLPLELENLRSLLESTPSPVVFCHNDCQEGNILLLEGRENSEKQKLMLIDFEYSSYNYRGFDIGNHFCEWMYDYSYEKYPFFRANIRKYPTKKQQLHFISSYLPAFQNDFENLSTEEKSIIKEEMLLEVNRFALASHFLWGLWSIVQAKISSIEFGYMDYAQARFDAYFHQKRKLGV

Row | Structure (SMILES) | IC50 (HT-29 [1]) [µM] | IC50 (Choline kinase alpha) [µM] | IC50 (HT-29 [2]) [µM]
1 | CN(c1ccccc1)c1cc[n+](Cc2cccc(-c3cccc(C[n+]4ccc(N(C)c5ccccc5)c5ccccc54)c3)c2)c2ccccc12 | 0.8 | 0.4 | 
2 | CN(c1ccc(Cl)cc1)c1cc[n+](Cc2ccc(-c3ccc(C[n+]4ccc(N(C)c5ccc(Cl)cc5)c5ccc(Cl)cc54)cc3)cc2)c2cc(Cl)ccc12 | 1.2 |  | 
3 | CN(c1ccccc1)c1cc[n+](Cc2ccc(-c3ccc(C[n+]4ccc(N(C)c5ccccc5)c5ccc(Cl)cc54)cc3)cc2)c2cc(Cl)ccc12 | 0.5 | 11.4 | 
4 | CN(C)c1cc[n+](Cc2ccc(-c3ccc(C[n+]4ccc(N(C)C)c5ccccc54)cc3)cc2)c2ccccc12 | 1.7 | 39.7 | 
5 | Cc1c(N)ccc2c(N(C)c3ccccc3)cc[n+](Cc3cccc(-c4cccc(C[n+]5ccc(N(C)c6ccccc6)c6ccc(N)c(C)c65)c4)c3)c12 | 3.8 | 56.8 | 
6 | c1ccc(Nc2cc[n+](Cc3ccc(-c4ccc(C[n+]5ccc(Nc6ccccc6)c6ccccc65)cc4)cc3)c3ccccc23)cc1 | 0.7 | 17.8 | 
7 | CN(c1ccccc1)c1cc[n+](Cc2ccc(CCc3ccc(C[n+]4ccc(N(C)c5ccccc5)c5ccc(Cl)cc54)cc3)cc2)c2cc(Cl)ccc12 | 0.5 | 3.5 | 
8 | Nc1cc[n+](Cc2ccc(CCc3ccc(C[n+]4ccc(N)c5ccccc54)cc3)cc2)c2ccccc12 | 2 | 80 | 
9 | CN(C)c1cc[n+](Cc2ccc(-c3ccc(C[n+]4ccc(N(C)C)c5ccc(Cl)cc54)cc3)cc2)c2cc(Cl)ccc12 | 0.8 | 20.6 | 
10 | c1ccc2c(c1)c(N1CCCCCC1)cc[n+]2Cc1ccc(CCc2ccc(C[n+]3ccc(N4CCCCCC4)c4ccccc43)cc2)cc1 | 0.3 | 0.6 | 
11 | c1ccc(Nc2cc[n+](Cc3ccc(CCc4ccc(C[n+]5ccc(Nc6ccccc6)c6ccccc65)cc4)cc3)c3ccccc23)cc1 | 0.3 | 2.3 | 
12 | Cc1c[n+](Cc2ccc(-c3ccc(C[n+]4cc(C)c(N)c5ccccc54)cc3)cc2)c2ccccc2c1N | 3.3 | > 200 | 
13 | Clc1ccc2c(N3CCCC3)cc[n+](Cc3ccc(-c4ccc(C[n+]5ccc(N6CCCC6)c6ccc(Cl)cc65)cc4)cc3)c2c1 | 2.4 | 19.8 | 
14 | CN(c1ccc(Cl)cc1)c1cc[n+](Cc2cccc(-c3cccc(C[n+]4ccc(N(C)c5ccc(Cl)cc5)c5ccc(Cl)cc54)c3)c2)c2cc(Cl)ccc12 | 1.9 |  | 
15 | Cc1c[n+](Cc2cccc(-c3cccc(C[n+]4cc(C)c(N)c5ccccc54)c3)c2)c2ccccc2c1N | 4.4 | 11.9 | 
16 | Nc1cc[n+](Cc2ccc(-c3ccc(C[n+]4ccc(N)c5ccccc54)cc3)cc2)c2ccccc12 | 2.2 | 81.1 | 
17 | Nc1cc[n+](Cc2cccc(-c3cccc(C[n+]4ccc(N)c5ccccc54)c3)c2)c2ccccc12 | 1.9 | 1.2 | 
18 | Cc1c(N)ccc2c(N(C)c3ccc(Cl)cc3)cc[n+](Cc3ccc(-c4ccc(C[n+]5ccc(N(C)c6ccc(Cl)cc6)c6ccc(N)c(C)c65)cc4)cc3)c12 | 19.4 | 46.1 | 
19 | CN(C)c1cc[n+](Cc2cccc(-c3cccc(C[n+]4ccc(N(C)C)c5ccccc54)c3)c2)c2ccccc12 | 1.6 | 4.4 | 
20 | Nc1cc[n+](Cc2ccc(CCc3ccc(C[n+]4ccc(N)c5ccc(Cl)cc54)cc3)cc2)c2cc(Cl)ccc12 | 1.9 | > 200 | 
21 | CN(c1ccc(Cl)cc1)c1cc[n+](Cc2ccc(CCc3ccc(C[n+]4ccc(N(C)c5ccc(Cl)cc5)c5ccccc54)cc3)cc2)c2ccccc12 | 0.7 |  | 
22 | CN(c1ccc(Cl)cc1)c1cc[n+](Cc2cccc(-c3cccc(C[n+]4ccc(N(C)c5ccc(Cl)cc5)c5ccccc54)c3)c2)c2ccccc12 | 1.5 |  | 
23 | CN(C)c1cc[n+](Cc2ccc(CCc3ccc(C[n+]4ccc(N(C)C)c5ccc(Cl)cc54)cc3)cc2)c2cc(Cl)ccc12 | 0.27 | 9 | 0.45
24 | c1cc(C[n+]2ccc(N3CCCCCC3)c3ccccc32)cc(-c2cccc(C[n+]3ccc(N4CCCCCC4)c4ccccc43)c2)c1 | 0.5 | 0.5 | 
25 | Cc1c(N)ccc2c(N(C)c3ccc(Cl)cc3)cc[n+](Cc3cccc(-c4cccc(C[n+]5ccc(N(C)c6ccc(Cl)cc6)c6ccc(N)c(C)c65)c4)c3)c12 | 33 | 147 | 
26 | CN(c1ccccc1)c1cc[n+](Cc2ccc(-c3ccc(C[n+]4ccc(N(C)c5ccccc5)c5ccccc54)cc3)cc2)c2ccccc12 | 0.6 | 3 | 

Further molecules by falling IC50 (HT-29 [1]), results first:

Row | IC50 (HT-29 [1]) [µM] | IC50 (Choline kinase alpha) [µM] | IC50 (HT-29 [2]) [µM] | Structure (SMILES)
27 | 25.2 | 96.1 |  | Cc1c(N)ccc2c(N(C)c3ccccc3)cc[n+](Cc3ccc(-c4ccc(C[n+]5ccc(N(C)c6ccccc6)c6ccc(N)c(C)c65)cc4)cc3)c12
28 | 19.5 | 57.5 |  | Cc1c(N)ccc2c(N(C)c3ccc(Cl)cc3)cc[n+](Cc3ccc(CCc4ccc(C[n+]5ccc(N(C)c6ccc(Cl)cc6)c6ccc(N)c(C)c65)cc4)cc3)c12
29 | 7 | 133 |  | Cc1c(N)ccc2c(N(C)c3ccccc3)cc[n+](Cc3ccc(CCc4ccc(C[n+]5ccc(N(C)c6ccccc6)c6ccc(N)c(C)c65)cc4)cc3)c12
30 | 3.2 | 63.3 |  | Nc1cc[n+](Cc2ccc(-c3ccc(C[n+]4ccc(N)c5ccc(Cl)cc54)cc3)cc2)c2cc(Cl)ccc12
31 | 1.9 | 20.6 |  | Nc1cc[n+](Cc2cccc(-c3cccc(C[n+]4ccc(N)c5ccc(Cl)cc54)c3)c2)c2cc(Cl)ccc12
32 | 1.6 | 1.3 |  | c1ccc(Nc2cc[n+](Cc3cccc(-c4cccc(C[n+]5ccc(Nc6ccccc6)c6ccccc65)c4)c3)c3ccccc23)cc1
33 | 1.2 |  |  | CN(c1ccc(Cl)cc1)c1cc[n+](Cc2ccc(-c3ccc(C[n+]4ccc(N(C)c5ccc(Cl)cc5)c5ccccc54)cc3)cc2)c2ccccc12 [RSM-932A]
34 | 1 | 3.1 |  | CN(c1ccccc1)c1cc[n+](Cc2cccc(-c3cccc(C[n+]4ccc(N(C)c5ccccc5)c5ccc(Cl)cc54)c3)c2)c2cc(Cl)ccc12
35 | 0.8 |  |  | CN(c1ccc(Cl)cc1)c1cc[n+](Cc2ccc(CCc3ccc(C[n+]4ccc(N(C)c5ccc(Cl)cc5)c5ccc(Cl)cc54)cc3)cc2)c2cc(Cl)ccc12
36 | 0.7 |  |  | CN(C)c1cc[n+](Cc2cccc(-c3cccc(C[n+]4ccc(N(C)C)c5ccc(Cl)cc54)c3)c2)c2cc(Cl)ccc12
37 | 0.7 | 1.4 |  | CN(c1ccccc1)c1cc[n+](Cc2ccc(CCc3ccc(C[n+]4ccc(N(C)c5ccccc5)c5ccccc54)cc3)cc2)c2ccccc12
38 | 0.5 | 10.2 |  | CN(C)c1cc[n+](Cc2ccc(CCc3ccc(C[n+]4ccc(N(C)C)c5ccccc54)cc3)cc2)c2ccccc12
39 | 0.5 | 2.2 |  | c1ccc2c(c1)c(N1CCCCCC1)cc[n+]2Cc1ccc(-c2ccc(C[n+]3ccc(N4CCCCCC4)c4ccccc43)cc2)cc1
40 | 0.4 |  |  | Clc1ccc2c(N3CCCC3)cc[n+](Cc3cccc(-c4cccc(C[n+]5ccc(N6CCCC6)c6ccc(Cl)cc65)c4)c3)c2c1
41 | 0.2 |  |  | Clc1ccc2c(N3CCCC3)cc[n+](Cc3ccc(CCc4ccc(C[n+]5ccc(N6CCCC6)c6ccc(Cl)cc65)cc4)cc3)c2c1
